Consider four molecules from patent publication US5563151A, “Amino acid derivatives as paf-receptor antagonists” (British Biotech Pharmaceuticals limited, priority 1992, dated 1996).

Experiment [1] concerns the target T1, PAF receptor (human platelet plasma membrane) (Homo sapiens, UniProt P25105).
T1 construct: Platelet concentrates were obtained from a hospital blood bank; from tissue; host or cells: human platelets (hospital blood bank concentrates), lysed platelet membranes
Briefly: Inhibition of [^3 H]-PAF Receptor Binding. The note with it: human platelet plasma membranes; [^3 H]-PAF 0.5 nM; 0° C., 1 hour, pH 7.0. How it is done: (§1) Compounds of general formula I inhibit PAF-induced functions in both the cellular and tissue levels by changing the PAF binding to its specific receptor site. The ability of compounds of general formula I to inhibit the binding of PAF to its specific receptor binding site on human platelet plasma membranes was measured according to Example 150. The ability of compounds of general formula I to reverse the hypotension caused by an infusion of PAF in rats was measured according Example 151.
Inhibition of [^3 H]-PAF Receptor Binding
The inhibition of [^3 H]-PAF binding to human platelet plasma membrane by compounds of general formula I was determined by isotopic labelling and filtration techniques. Platelet concentrates were obtained from a hospital blood bank. These platelet concentrates (500-2500 ml.) were centrifuged at 800 rpm for 10 minutes in a SORVALL RC3B centrifuge to remove the red blood cells present. (The word SORVALL is a trade mark.) The supernatant was subsequently centrifuged at 3,000 rpm in a SORVALL RC3B centrifuge to pellet the platelets present. The platelet rich pellets were resuspended in a minimum volume of buffer (150 mM NaCl, 10 mM Tris, 2 mM EDTA, pH 7.5) and layered onto Ficoll-Paque gradients, 9 ml platelet concentrate to 2 ml Ficoll, and centrifuged at 1,900 rpm for 15 minutes in a SORVALL RT6000 centrifuge. This step removes the residual red blood cells and other nonspecific material such as lymphocytes from the preparation. The platelets which form a band between the plasma and the Ficoll were removed, resuspended in the above buffer and centrifuged at 3,000 rpm for 10 minutes in a SORVALL RT6000 centrifuge. […]
The assay was conducted by preparing a series of Tris-buffered solutions of the selected antagonist of predetermined concentrations. […] Each washed residue was dried under vacuum on a sampling manifold and placed into vials containing 20 ml of OPTIPHASE MP scintillation fluid and the radioactivity counted in a liquid scintillation counter. […]

The subject of another experiment is PAF-induced hypotension. Briefly: Inhibition of PAF-Induced Hypotension in the Rat. The format is in vivo, rat (male Sprague-Dawley). The note with it: iv, i.v. bolus, PAF 100 ng/kg/min i.v. infusion, anaesthetised rats, read-out: ED50 (dose to cause a 50% reversal of the hypotensive PAF response). How it is done: as §1
Inhibition of PAF-Induced Hypotension in the Rat
Male Sprague-Dawley rats (300-350 g) were anaesthetised with a mixture of sodium pentobarbitone, 22.5 mg/kg and thiopental 62.5 mg/kg. Through a midline incision in the neck, the trachea was cannulated and the animals breathed spontaneously. A carotid artery was cannulated for the measurement of blood pressure and this signal was used to trigger a rate meter to measure heart rate. Both jugular veins were cannulated: one for the infusion of PAF and the other for the bolus administration of test compounds.
PAF, 100 ng/kg/min was infused i.v. until a sustained fall in mean blood pressure of 50 mmHg was achieved. […] The peak of this reversal was measured and the dose to cause a 50% reversal of the hypotensive PAF response (ED50) calculated by straight line interpolation and the results are presented in Table 2.

T1 sequence (P25105 whole entry): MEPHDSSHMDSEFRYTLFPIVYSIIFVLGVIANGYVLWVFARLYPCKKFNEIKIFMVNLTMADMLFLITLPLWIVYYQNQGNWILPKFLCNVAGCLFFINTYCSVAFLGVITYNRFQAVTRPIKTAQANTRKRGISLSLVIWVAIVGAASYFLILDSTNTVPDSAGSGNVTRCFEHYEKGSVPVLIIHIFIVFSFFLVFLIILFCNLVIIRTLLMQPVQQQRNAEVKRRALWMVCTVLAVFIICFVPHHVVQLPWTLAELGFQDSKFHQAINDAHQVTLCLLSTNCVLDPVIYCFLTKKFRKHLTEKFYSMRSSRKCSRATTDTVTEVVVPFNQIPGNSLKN

The IC50 is the concentration that inhibits the measured activity by half. Low readings indicate higher potency, high ones lower potency. A word on the ED50: it is the midpoint of the dose-response relation. In experiment [1], `CCOC(=O)[C@H](CC(C)C)NC(=O)CCCn1c(C)nc2cnccc21` [Example 11B, N-4-(2-methylimidazo[4,5-c]pyridin-1-yl)butanoyl-L-leucine ethyl ester] displayed a half-inhibitory concentration (IC50) of 3 nM. For the same molecule, the ED50 in the experiment with PAF-induced hypotension was 0.0305 mg/kg.
The molecule `CCOC(=O)[C@H](CC(C)C)NC(=O)CCCCCCCCCCn1c(C)nc2cnccc21` [Example 98B, N-11-(2-methylimidazo[4,5-c]pyridin-1-yl)undecanoyl-L-leucine ethyl ester] gave a half-maximal inhibitory concentration (IC50) in experiment [1] of 1 nM.
As to `CCOC[C@H](CC(C)C)NS(=O)(=O)CCCn1c(C)nc2cnccc21` [Example 33B, N-4-(2-methylimidazo[4,5-c]pyridin-1-yl)propylsulphonyl-L-leucinyl ethyl ether], in the experiment with PAF-induced hypotension, the ED50 was determined as 0.0018 mg/kg.
On to `CCOC(=O)[C@H](CC(C)C)NC(=O)CCCCCn1c(C)nc2cnccc21` [Example 1B, N-6-(2-methylimidazo[4,5-c]pyridin-1-yl)hexanoyl-L-leucine ethyl ester], for which the 50% inhibitory concentration (IC50) in experiment [1] turned out to be 15 nM.
